Data taken from US7803792B2, “Quaternary ammonium compounds” (Asahi Kasei Pharma Corporation, priority 2002, dated 2010).
Each block holds one compound with its values, some of them ahead of it.

What was measured:
bile acid loaded model = test: Cholestasis-caused hepatopathy model, bile acid loaded model, 4.5 days (Test Example 14); assay type: in vivo, rat; conditions: administration period 4.5 days, N = 6, average ± standard error
Method: “Cholestasis-Caused Hepatopathy” Model (Bile Acid Loaded Model)
In this test example, the model of hepatopathy due to loading of bile acid was carried out similarly to the protocol B in Test Example 5. However, the administration period in this test example was changed to 4.5 days. […] Therefore, the compounds have proven to be useful as drugs for the treatment and prevention of cholestasis-caused hepatopathy, in particular as drugs for the treatment and prevention of primary biliary cirrhosis and primary sclerosing cholangitis. Moreover, the compounds of other examples of the present invention not shown in Tables 18 and 19 can be expected to have excellent ameliorating effects on cholestasis-caused hepatopathy.

[1] = system: bile duct partial ligation model; test: Cholestasis-caused hepatopathy model, bile duct partial ligation, IBAT inhibiting compounds, blood after 24 hours (Test Example 13); assay type: in vivo, rat; conditions: blood 24 hours after administration, N = 3, average ± standard error
Method: “Cholestasis-Caused Hepatopathy” Model (Bile Duct Partial Ligation Model)
In this test example, the model of cholestasis-caused hepatopathy was tested according to the method described in Test Example 5.
That is, the abdomens of 8 to 10 weeks old SD (IGS) male rats were cut open under anesthesia with pentobarbital and partial ligation surgery of the bile duct was carried out. After the surgery, 200 mg/kg of bile acid and an IBAT inhibiting compound were forcibly orally administered to the rats (each n=3). As a control group, physiological saline […] was administered (n=3). To observe the effect of the partial ligation surgery, a sham group (the abdomen was cut open under anesthesia with pentobarbital but partial ligation surgery of the bile duct was not carried out) and an untreated group were established (each n=3). After 24 hours from the administration a blood sample was taken from the abdominal aorta and AST, ALT, and ALP in the blood were measured using the method described in Test Example 5.

human IBAT = molecular target: T1, human IBAT (Homo sapiens, UniProt Q12908); test: In vitro assay of temporarily expressed human IBAT transporter using Cos 7 cells (Test Example 8); assay type: cell-based; conditions: Cos 7 cells temporarily expressing human IBAT; [3H] taurocholate 8 μM, 37° C., 60 minutes
T1 construct: expressed in transfected cells; host or cells: Cos 7
T1 sequence (Q12908 1-348): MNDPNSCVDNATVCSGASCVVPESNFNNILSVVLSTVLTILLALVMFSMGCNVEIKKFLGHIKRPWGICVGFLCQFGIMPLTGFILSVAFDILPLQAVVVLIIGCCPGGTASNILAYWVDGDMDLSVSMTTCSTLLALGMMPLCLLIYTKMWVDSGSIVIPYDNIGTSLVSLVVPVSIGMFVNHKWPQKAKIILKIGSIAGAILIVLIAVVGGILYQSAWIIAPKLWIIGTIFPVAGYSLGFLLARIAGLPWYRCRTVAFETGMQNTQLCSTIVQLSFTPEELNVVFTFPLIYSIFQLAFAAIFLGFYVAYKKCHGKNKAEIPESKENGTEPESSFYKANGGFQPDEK
Outline: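 Cos 7 cells transiently transfected with human or rat IBAT cDNA, assayed one day later in Hank's buffer with 25 mM glucose, 10 mM HEPES (pH 7.4) plus compound. Uptake of 8 μM [^3H]taurocholate over 60 min at 37 °C, stopped with 1 mM taurocholate washes; lysate radioactivity by scintillation counting.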

rat IBAT = molecular target: T2, rat IBAT (Rattus norvegicus, UniProt Q62633); test: In vitro assay of temporarily expressed rat IBAT transporter using Cos 7 cells (Test Example 8); assay type: cell-based; conditions: Cos 7 cells temporarily expressing rat IBAT; [3H] taurocholate 8 μM, 37° C., 60 minutes
T2 construct: expressed in transfected cells; host or cells: Cos 7
T2 sequence (Q62633 1-348): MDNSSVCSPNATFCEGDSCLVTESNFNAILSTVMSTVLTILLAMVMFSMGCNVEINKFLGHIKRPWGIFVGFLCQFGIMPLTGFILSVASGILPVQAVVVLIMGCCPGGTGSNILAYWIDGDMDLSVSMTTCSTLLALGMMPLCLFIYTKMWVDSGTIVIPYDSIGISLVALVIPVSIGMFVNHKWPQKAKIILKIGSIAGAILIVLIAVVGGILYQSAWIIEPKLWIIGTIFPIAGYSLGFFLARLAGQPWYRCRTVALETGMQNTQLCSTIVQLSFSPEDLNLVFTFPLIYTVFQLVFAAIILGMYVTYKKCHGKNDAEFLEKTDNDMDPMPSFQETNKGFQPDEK
Method: In Vitro Assay of Compounds Which Inhibit Temporarily Expressed Human IBAT Transporter or Rat IBAT Transporter Using Cos 7 Cells
In this test example, the in vitro assay of the compounds which inhibit temporarily expressed human IBAT transporter or rat IBAT transporter using Cos cells was carried out according to the method described in Am. J. Physiol., 274, G157-169.
That is, […] Cos 7 were inoculated on a 24-well cell plate. One day later, 0.3 μg per well of cDNA of a human IBAT or a rat IBAT was transfected by using FuGENE6 (manufactured by ROCHE PHARMACEUTICAL CO., LTD.). For the assay, the cells cultured for one day after the transfection were used and the following procedure was followed. The cells were washed once with an assay buffer, Hank's buffer solution containing 25 mM glucose and with 10 mM HEPES (pH 7.4), and then the assay buffer was replaced by an assay buffer to which the test compound was added. After adding [^3H] taurocholate to a final concentration of 8 μM, the cells were incubated at 37° C. for 60 minutes. [^3H] taurocholate was allowed to be incorporated in Cos 7 cells through human IBAT or rat IBAT. The reaction was stopped by washing twice with a buffer prepared by adding 1 mM taurocholate to the assay buffer and lyzing the cells with 0.2M NaOH. Measurement of radioactivity was carried out by introducing the cell lyzate in 4 ml of liquid scintillation cocktail, stirring the mixture well, and then measuring the radioactivity by a scintillation counter.

[2] = system: Cholic acid-loaded rat model; test: Bile acid-decreasing effect in portal vein of rats loaded with cholic acid (Test Example 2); assay type: in vivo; conditions: 0.1 mg/kg oral with cholic acid 200 mg/kg, portal vein blood after 2 hours
Method: Bile Acid-Decreasing Effect in Portal Vein of Rats Loaded With Cholic Acid
In this test example, the test for confirming the bile acid-decreasing effect in portal vein of cholic acid-loaded rats was carried out according to the method described in Pharmacology and Therapeutics [Jpn Pharmacol. Ther., Vol. 24 Supplement, 1996, 103 (S-577)-110 (S-584)].
That is, 7 to 9 weeks old SD (IGS) rats were starved on the day before the test and thereafter. […] After 2 hours from the administration, a sample of blood was taken from a portal vein and total serum bile acid level was measured to study the effect of the test compound (n=6). Further, as a control group, a group (n=6) loaded with cholic acid (200 mg/kg) only was prepared and the same test procedure was followed. A commercially available kit (trade name: SOTANJUSAN-TEST WAKO-(SOTANJUSAN=total bile acid), manufactured by WAKO PURE CHEMICAL […], LTD.) was used for the measurement of bile acid. Assuming the value of the control group, which is a group in which no test compound was used, as 100%, the rate of decrease (percentage (%) of decrease) of the bile acid level when a fixed amount of the test compound was used was determined.

Caco 2 cells = test: Toxicity with respect to alimentary canal: cytotoxicity to Caco 2, LDH activity (Test Example 12); assay type: cell-based, human; conditions: LDH activity after 2 hours, relative to cytolytic agent = 100%
Method: Toxicity With Respect to Alimentary Canal
To evaluate the toxicity of the compounds of the present invention to the alimentary canal, the cytotoxicity to Caco 2, which is a human originated small intestine epithelial cell line, was tested by referring to the method of Bestwick C S et al. [Biochimica et Biophysica Acta 1474: 47-55, 1999].
That is, Caco 2 cells (purchased from ATCC) were inoculated on a 96-well plate such that there were 10,000 cells/well [MEM-E medium, 10% FBS (Fetal Bovine Serum), 1% NEAA (Non Essential Amino Acid) solution, (both manufactured by GIBCO PHARMACEUTICAL COMPANY)]. After culturing for 48 hours, the test compounds were diluted with the culture medium and added to the respective wells. After 2 hours, 50 μl of the culture broth was collected and the LDH activity in the collected culture broth was measured by using an LDH activity measuring kit (CytoTox 96 Non-Radioactive Cytotoxicity Assay, manufactured by PROMEGA CORPORATION). Relative activities were calculated assuming the LDH activity as 100% when the Caco 2 cells were treated with the cytolytic agent and the obtained relative activities were taken as cytotoxicities to Caco 2 cell.

SMILES: CCCC[C@@]1(CC)CS(=O)(=O)c2cc(OC)c(OC)cc2[C@H](c2ccccc2)N1 (relative stereo) [Compound B, Trans-3-butyl-3-ethyl-2,3,4,5-tetrahydro-7,8-dimethoxy-5-phenyl-1,4-benzothiazepine-1,1-dioxide]
- ALT (bile acid loaded model; Table 19, 0.1 mg/kg): 54 ± 6 IU/L
- AST (bile acid loaded model; Table 19, 0.1 mg/kg): 110 ± 4 IU/L
- ALP ([1]; Table 17, 1 mg/kg oral): 1335 ± 116 IU/L
- ALT ([1]; Table 17, 1 mg/kg oral): 138 ± 54 IU/L
- AST ([1]; Table 17, 1 mg/kg oral): 261 ± 63 IU/L

SMILES: CCCC[C@@]1(CC)CS(=O)(=O)c2ccccc2[C@H](c2ccccc2)N1 (relative stereo) [Compound C, Trans-3-butyl-3-ethyl-2,3,4,5-tetrahydro-5-phenyl-1,4-benzothiazepine-1,1-dioxide]
- ALT (bile acid loaded model; Table 18, 10 mg/kg): 53 ± 6 IU/L
- AST (bile acid loaded model; Table 18, 10 mg/kg): 100 ± 2 IU/L
- ALP ([1]; Table 16, 10 mg/kg oral): 948 ± 208 IU/L
- ALT ([1]; Table 16, 10 mg/kg oral): 113 ± 44 IU/L
- AST ([1]; Table 16, 10 mg/kg oral): 313 ± 82 IU/L

SMILES: CCCCC1(CCCC)CS(=O)(=O)c2ccc(N(C)C)cc2[C@H](c2cccc([N+](C)(C)C)c2)[C@@H]1O.[I-] (relative stereo) [Compound D, Cis-[3-(3,3-dibutyl-7-dimethylamino-4-hydroxy-1,1-dioxo-2,3,4,5-tetrahydro-1-benzothiepin-5-yl)phenyl]trimethyl-ammonium iodide]
- ALT (bile acid loaded model; Table 18, 10 mg/kg): 46 ± 4 IU/L
- AST (bile acid loaded model; Table 18, 10 mg/kg): 100 ± 9 IU/L
- ALP ([1]; Table 16, 10 mg/kg oral): 715 ± 24 IU/L
- ALT ([1]; Table 16, 10 mg/kg oral): 73 ± 17 IU/L
- AST ([1]; Table 16, 10 mg/kg oral): 275 ± 12 IU/L

SMILES: CCC(CC)CC(=O)c1c(C(=O)OC)c(-c2ccc(OC)c(OC)c2)c2c(OC)c(OC)c(OC)cc2c1O [Compound E, Methyl 1-(3,4-dimethoxyphenyl)-3-(3-ethylvaleryl)-4-hydroxy-6,7,8-trimethoxy-2-naphthoate]
- ALT (bile acid loaded model; Table 19, 10 mg/kg): 46 ± 3 IU/L
- AST (bile acid loaded model; Table 19, 10 mg/kg): 105 ± 11 IU/L
- ALP ([1]; Table 17, 10 mg/kg oral): 1345 ± 145 IU/L
- ALT ([1]; Table 17, 10 mg/kg oral): 180 ± 68 IU/L
- AST ([1]; Table 17, 10 mg/kg oral): 280 ± 72 IU/L

SMILES: CCC(CC)CC(=O)c1c(C(=O)OC)c(-c2ccc(OC)c(OC)c2)c2c(OC)c(OC)c(OC)cc2c1OC1OC(C(=O)O)C(O)C(O)C1O [Compound F, {1-O-[4-(3,4-dimethoxyphenyl)-2-(3-ethyl-pentanoyl)-5,6,7-trimethoxy-3-(methoxycarbonyl)naphthalen-1-yl]-β-D-glucopyranosido}uronic acid]
- ALT (bile acid loaded model; Table 19, 10 mg/kg): 58 ± 5 IU/L
- AST (bile acid loaded model; Table 19, 10 mg/kg): 123 ± 16 IU/L
- ALP ([1]; Table 17, 10 mg/kg oral): 1423 ± 115 IU/L
- ALT ([1]; Table 17, 10 mg/kg oral): 214 ± 53 IU/L
- AST ([1]; Table 17, 10 mg/kg oral): 320 ± 66 IU/L

SMILES: CCCCC1(CCCC)CS(=O)(=O)c2ccc(N(C)C)cc2C(c2cccc(NC(=S)NCCC[N+]34CCC(CC3)CC4)c2)N1 (stereo not drawn) [Example 9, 1-(3-{3-[3,3-Dibutyl-7-dimethylamino-1,1-dioxo-2,3,4,5-tetrahydro-1,4-benzothiazepin-5-yl)phenyl]thioureido}-propyl)-1-azoniabicyclo[2.2.2]octane bromide]
- IC50 (human IBAT): 76 nM
- IC50 (rat IBAT): 36 nM

- IC50 (human IBAT): 37 nM
- IC50 (rat IBAT): 5 nM
SMILES: CCCCC1(CCCC)CS(=O)(=O)c2ccc(N(C)C)cc2C(c2cccc(NC(=S)Nc3ccc(C[N+]45CCC(CC4)CC5)cc3)c2)N1.[Br-] (stereo not drawn) [Example 3695]
- Rate of decrease (%) of bile acid ([2]; HCO-60 0.1%): 23%
- Toxicity (%) to Caco 2 (Caco 2 cells; 3 μM): <1%
- Toxicity (%) to Caco 2 (Caco 2 cells; 10 μM): <1%
- Toxicity (%) to Caco 2 (Caco 2 cells; 30 μM): <1%

- IC50 (human IBAT): 28 nM
- IC50 (rat IBAT): 9 nM
SMILES: CCCCC1(CCCC)CS(=O)(=O)c2ccc(N(C)C)cc2C(c2cccc(NC(=S)CCCCC[N+]34CCC(c5ccccc5)(CC3)CC4)c2)N1 (stereo not drawn) [Example 3853]
- Rate of decrease (%) of bile acid ([2]; HCO-60 0.1%): 36%
- Toxicity (%) to Caco 2 (Caco 2 cells; 3 μM): <1%
- Toxicity (%) to Caco 2 (Caco 2 cells; 10 μM): <1%
- Toxicity (%) to Caco 2 (Caco 2 cells; 30 μM): <1%

- IC50 (human IBAT): 36 nM
- IC50 (rat IBAT): 9 nM
SMILES: CCCCC1(CCCC)CS(=O)(=O)c2ccc(N(C)C)cc2C(c2cccc(NC(=S)CCCCCCC[N+]34CCC(CC3)CC4)c2)N1 (stereo not drawn) [Example 3932]
- Rate of decrease (%) of bile acid ([2]; Tween 20 0.05%): 30%
